From PMC10165273, “Itch receptor MRGPRX4 interacts with the receptor activity–modifying proteins” (The Journal of Biological Chemistry, 2023)
Where two headings read alike, the source gives them in different places.

Target: T1, MRGPRX4 (Homo sapiens, UniProt Q96LA9)
T1 construct: expressed in transfected cells; host or cells: HEK293T
Experiment: IP1 accumulation HTRF assay, MRGPRX4
Assay type: cell-based
Set-up: key to IP1 Basal / IP1 accumulation with YM (Figure 1c) / response to agonist, MRGPRX4 / IP1 accumulation: % IP1: unstimulated mock-transfected = 0%, fully stimulated MRGPRX4 = 100%
Details: for IP1 accumulation (normalized): Supplementary Figure 5d-g

[1] = Tet-On MRGPRX4, over 1pg/cell Normalized, Dox 3300 ng/mL (Fig. S5C)

T1 sequence (Q96LA9 whole entry): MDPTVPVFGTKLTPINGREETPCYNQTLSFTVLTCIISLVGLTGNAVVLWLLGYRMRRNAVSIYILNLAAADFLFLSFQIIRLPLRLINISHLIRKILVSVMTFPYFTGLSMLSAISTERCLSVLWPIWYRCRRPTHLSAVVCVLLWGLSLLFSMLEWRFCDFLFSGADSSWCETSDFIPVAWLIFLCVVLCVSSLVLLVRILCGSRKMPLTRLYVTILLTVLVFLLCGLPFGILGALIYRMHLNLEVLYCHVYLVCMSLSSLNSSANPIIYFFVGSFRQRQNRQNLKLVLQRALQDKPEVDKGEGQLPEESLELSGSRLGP

For `CC(C)[C@H]1CC[C@H](C(=O)N[C@H](Cc2ccccc2)C(=O)O)CC1` [Nateglinide], the EC50 (Tet-On MRGPRX4 1pg/cell, Dox 3300 ng/mL (Fig. S5B), read-out: IP1 EC50) was 9.26 µM, the Emax (Tet-On MRGPRX4 1pg/cell, Dox 3300 ng/mL (Fig. S5B), read-out: IP1 Emax) was 34.4% and the Emax (Tet-On MRGPRX4 1pg/cell, Dox 3300 ng/mL (Fig. S5B), read-out: IP1 span) was 35.4%. The “IP1 Basal” value (Tet-On MRGPRX4 1pg/cell, No dox (Fig. S5B)) was -1.503, the Emax (Tet-On MRGPRX4 1pg/cell, No dox (Fig. S5B), read-out: IP1 Emax) was 25% and the Emax (Tet-On MRGPRX4 1pg/cell, No dox (Fig. S5B), read-out: IP1 span) was 26.5%. For the same compound, the “IP1 Basal” value (Tet-On MRGPRX4 2pg/cell, Dox 13 ng/mL (Fig. S5A)) was 6.149, the EC50 (Tet-On MRGPRX4 2pg/cell, Dox 13 ng/mL (Fig. S5A), read-out: IP1 EC50) was 7.35 µM and the Emax (Tet-On MRGPRX4 2pg/cell, Dox 13 ng/mL (Fig. S5A), read-out: IP1 Emax) was 84.9%. For the same compound, the EC50 (Tet-On MRGPRX4 2pg/cell, Dox 13 ng/mL (Fig. S5A), read-out: IP1 logEC50 (converted)) was 7.35 µM, the Emax (Tet-On MRGPRX4 2pg/cell, Dox 13 ng/mL (Fig. S5A), read-out: IP1 span) was 78.8% and the “IP1 Basal” value (Tet-On MRGPRX4 2pg/cell, Dox 40 ng/mL (Fig. S5A)) was 7.421. It also gave an EC50 (Tet-On MRGPRX4 2pg/cell, Dox 40 ng/mL (Fig. S5A), read-out: IP1 EC50) of 6.07 µM, an Emax (Tet-On MRGPRX4 2pg/cell, Dox 40 ng/mL (Fig. S5A), read-out: IP1 Emax) of 87.5% and an Emax (Tet-On MRGPRX4 2pg/cell, Dox 40 ng/mL (Fig. S5A), read-out: IP1 span) of 80.1%. The “IP1 Basal” value (Tet-On MRGPRX4 2pg/cell, Dox 1100 ng/mL (Fig. S5A)) was 11.03, the Emax (Tet-On MRGPRX4 2pg/cell, Dox 1100 ng/mL (Fig. S5A), read-out: IP1 Emax) was 101% and the EC50 (Tet-On MRGPRX4 2pg/cell, Dox 1100 ng/mL (Fig. S5A), read-out: IP1 logEC50 (converted)) was 5.41 µM. The Emax (Tet-On MRGPRX4 2pg/cell, Dox 1100 ng/mL (Fig. S5A), read-out: IP1 span) was 90.4%, the “IP1 Basal” value (Tet-On MRGPRX4 2pg/cell, Dox 3300 ng/mL (Fig. S5A)) was 10.81 and the EC50 (Tet-On MRGPRX4 2pg/cell, Dox 3300 ng/mL (Fig. S5A), read-out: IP1 EC50) was 6.36 µM. For the same compound, the Emax (Tet-On MRGPRX4 2pg/cell, Dox 3300 ng/mL (Fig. S5A), read-out: IP1 Emax) was 106%, the Emax (Tet-On MRGPRX4 2pg/cell, Dox 3300 ng/mL (Fig. S5A), read-out: IP1 span) was 95.6% and the “IP1 logEC50” value (Tet-On MRGPRX4 2pg/cell, Dox […] (Fig. S5A)) was -5.040. The “IP1 Basal” value (Tet-On MRGPRX4 2pg/cell, No dox (Fig. S5A)) was 0.7169, the Emax (Tet-On MRGPRX4 2pg/cell, No dox (Fig. S5A), read-out: IP1 Emax) was 72.3% and the Emax (Tet-On MRGPRX4 2pg/cell, No dox (Fig. S5A), read-out: IP1 span) was 71.5%. For the same compound, the “IP1 Basal” value (Tet-On MRGPRX4, over 1pg/cell Normalized, Dox 13 ng/mL (Fig. S5C)) was -3.443, the EC50 (Tet-On MRGPRX4, over 1pg/cell Normalized, Dox 13 ng/mL (Fig. S5C), read-out: IP1 EC50) was 19 µM and the Emax (Tet-On MRGPRX4, over 1pg/cell Normalized, Dox 13 ng/mL (Fig. S5C), read-out: IP1 Emax) was 59.2%. For the same compound, the Emax (Tet-On MRGPRX4, over 1pg/cell Normalized, Dox 13 ng/mL (Fig. S5C), read-out: IP1 span) was 62.7%, the “IP1 Basal” value (Tet-On MRGPRX4, over 1pg/cell Normalized, Dox 40 ng/mL (Fig. S5C)) was -3.289 and the EC50 (Tet-On MRGPRX4, over 1pg/cell Normalized, Dox 40 ng/mL (Fig. S5C), read-out: IP1 EC50) was 13.5 µM. For the same compound, the Emax (Tet-On MRGPRX4, over 1pg/cell Normalized, Dox 40 ng/mL (Fig. S5C), read-out: IP1 Emax) was 63.5%, the Emax (Tet-On MRGPRX4, over 1pg/cell Normalized, Dox 40 ng/mL (Fig. S5C), read-out: IP1 span) was 66.8% and the “IP1 Basal” value (Tet-On MRGPRX4, over 1pg/cell Normalized, Dox 1100 ng/mL (Fig. S5C)) was -2.284. The EC50 (Tet-On MRGPRX4, over 1pg/cell Normalized, Dox 1100 ng/mL (Fig. S5C), read-out: IP1 EC50) was 10.7 µM, the Emax (Tet-On MRGPRX4, over 1pg/cell Normalized, Dox 1100 ng/mL (Fig. S5C), read-out: IP1 Emax) was 100% and the Emax (Tet-On MRGPRX4, over 1pg/cell Normalized, Dox 1100 ng/mL (Fig. S5C), read-out: IP1 span) was 102%. For the same compound, the “IP1 Basal” value [1] was 3.818, the “IP1 logEC50” value [1] was -5.036 and the EC50 (Tet-On MRGPRX4, over 1pg/cell Normalized, Dox 3300 ng/mL (Fig. S5C), read-out: IP1 EC50) was 9.2 µM. For the same compound, the Emax (Tet-On MRGPRX4, over 1pg/cell Normalized, Dox 3300 ng/mL (Fig. S5C), read-out: IP1 Emax) was 111%, the Emax (Tet-On MRGPRX4, over 1pg/cell Normalized, Dox 3300 ng/mL (Fig. S5C), read-out: IP1 span) was 107% and the “IP1 Basal” value (Tet-On MRGPRX4, over 1pg/cell Normalized, No dox (Fig. S5C)) was -1.726. The Emax (Tet-On MRGPRX4, over 1pg/cell Normalized, No dox (Fig. S5C), read-out: IP1 Emax) was 55.6%, the Emax (Tet-On MRGPRX4, over 1pg/cell Normalized, No dox (Fig. S5C), read-out: IP1 span) was 57.3% and the “IP1 Basal” value (Tet-On MRGPRX4:RAMP Ratio 1:0 (Fig. S5D-F)) was 8.926. It also gave an EC50 (Tet-On MRGPRX4:RAMP Ratio 1:0 (Fig. S5D-F), read-out: IP1 EC50) of 4.06 µM, an Emax (Tet-On MRGPRX4:RAMP Ratio 1:0 (Fig. S5D-F), read-out: IP1 Emax) of 107% and an Emax (Tet-On MRGPRX4:RAMP Ratio 1:0 (Fig. S5D-F), read-out: IP1 span) of 97.7%. For the same compound, the “IP1 Basal” value (Tet-On MRGPRX4:RAMP Ratio 1:0, no dox (Fig. S5D-F)) was 0.2822, the Emax (Tet-On MRGPRX4:RAMP Ratio 1:0, no dox (Fig. S5D-F), read-out: IP1 Emax) was 2.46% and the Emax (Tet-On MRGPRX4:RAMP Ratio 1:0, no dox (Fig. S5D-F), read-out: IP1 span) was 2.17%. For the same compound, the “IP1 Basal” value (construct FLAG-MRGPRX4-1D4 (Fig. S4A-F)) was 6.903, the EC50 (construct FLAG-MRGPRX4-1D4 (Fig. S4A-F), read-out: IP1 EC50) was 10.1 µM and the Emax (construct FLAG-MRGPRX4-1D4 (Fig. S4A-F), read-out: IP1 Emax) was 102%. For the same compound, the Emax (construct FLAG-MRGPRX4-1D4 (Fig. S4A-F), read-out: IP1 span) was 95.1%, the “IP1 Basal” value (construct FLAG-MRGPRX4-GFP10-1D4 (Fig. S4A-F)) was 7.722 and the EC50 (construct FLAG-MRGPRX4-GFP10-1D4 (Fig. S4A-F), read-out: IP1 EC50) was 9.91 µM. The Emax (construct FLAG-MRGPRX4-GFP10-1D4 (Fig. S4A-F), read-out: IP1 Emax) was 110%, the Emax (construct FLAG-MRGPRX4-GFP10-1D4 (Fig. S4A-F), read-out: IP1 span) was 102% and the “IP1 Basal” value (construct FLAG-NLuc-HT7-MRGPRX4-GFP10-1D4 (Fig. S4A-F)) was 8.575. For the same compound, the EC50 (construct FLAG-NLuc-HT7-MRGPRX4-GFP10-1D4 (Fig. S4A-F), read-out: IP1 EC50) was 6.41 µM, the Emax (construct FLAG-NLuc-HT7-MRGPRX4-GFP10-1D4 (Fig. S4A-F), read-out: IP1 Emax) was 55.2% and the Emax (construct FLAG-NLuc-HT7-MRGPRX4-GFP10-1D4 (Fig. S4A-F), read-out: IP1 span) was 46.6%. For the same compound, the “IP1 Basal” value (construct HA-MRGPRX4-1D4 (Fig. S4A-F)) was 13.13, the EC50 (construct HA-MRGPRX4-1D4 (Fig. S4A-F), read-out: IP1 EC50) was 10.7 µM and the Emax (construct HA-MRGPRX4-1D4 (Fig. S4A-F), read-out: IP1 Emax) was 91.5%. For the same compound, the Emax (construct HA-MRGPRX4-1D4 (Fig. S4A-F), read-out: IP1 span) was 78.4%, the “IP1 accumulation (normalized)” value (log [nateglinide] (M) -4, MRGPRX4 no dox) was 1.452 and the “IP1 accumulation (normalized)” value (log [nateglinide] (M) -4.69897, MRGPRX4) was 92.3953. The “IP1 accumulation (normalized)” value (log [nateglinide] (M) -5.39794, MRGPRX4) was 57.3306, the “IP1 accumulation (normalized)” value (log [nateglinide] (M) -6.09691, MRGPRX4) was 20.5565 and the “IP1 accumulation (normalized)” value (log [nateglinide] (M) -6.79588, MRGPRX4) was 15.0154. The “IP1 accumulation (normalized)” value (log [nateglinide] (M) -7.49485, MRGPRX4) was 11.7498.
